Assay results taken from BindingDB's records for doi:10.1021/bi4011286 (University of Michigan, 2013).

Key:
DNA primase [1] = molecular target: T1, DNA primase (Bacillus anthracis, UniProt A0A6L8PXB3); assay: Quatitative Inhibition Analysis Assay; details: pH 8.8
T1 sequence (A0A6L8PXB3 whole entry): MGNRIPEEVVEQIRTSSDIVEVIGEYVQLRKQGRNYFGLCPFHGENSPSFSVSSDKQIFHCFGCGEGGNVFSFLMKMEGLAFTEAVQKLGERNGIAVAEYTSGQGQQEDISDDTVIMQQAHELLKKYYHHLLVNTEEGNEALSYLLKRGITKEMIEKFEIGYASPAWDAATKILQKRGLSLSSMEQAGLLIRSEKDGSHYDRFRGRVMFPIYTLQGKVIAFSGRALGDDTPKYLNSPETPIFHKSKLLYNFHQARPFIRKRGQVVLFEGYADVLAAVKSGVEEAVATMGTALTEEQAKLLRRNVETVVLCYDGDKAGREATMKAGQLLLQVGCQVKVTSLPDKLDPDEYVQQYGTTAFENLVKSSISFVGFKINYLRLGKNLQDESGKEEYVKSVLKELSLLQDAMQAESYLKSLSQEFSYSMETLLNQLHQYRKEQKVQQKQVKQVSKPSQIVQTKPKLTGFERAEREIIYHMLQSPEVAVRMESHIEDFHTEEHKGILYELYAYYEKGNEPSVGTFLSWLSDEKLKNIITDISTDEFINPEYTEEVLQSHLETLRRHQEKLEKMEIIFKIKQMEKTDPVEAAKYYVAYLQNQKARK
Protocol: (§1) The reaction mixture contained DNA (1.25 uM or as specified), NTP (110 uM or as specified), 50 mM NaCl, 150 mM potassium glutamate, buffer [20 mM CAPS (pH 8.8) or as specified], and divalent metals (2 mM Mn2+ and 1 mM Mg2+). The assay was performed in 96-well plates with 4 uM Ba DnaG.

DNA primase [2] = molecular target: T2, DNA primase (Mycobacterium tuberculosis (strain CDC 1551 / Oshkosh), UniProt P9WNW0); assay: Quatitative Inhibition Analysis Assay; details: pH 8.8
T2 sequence (P9WNW0 whole entry): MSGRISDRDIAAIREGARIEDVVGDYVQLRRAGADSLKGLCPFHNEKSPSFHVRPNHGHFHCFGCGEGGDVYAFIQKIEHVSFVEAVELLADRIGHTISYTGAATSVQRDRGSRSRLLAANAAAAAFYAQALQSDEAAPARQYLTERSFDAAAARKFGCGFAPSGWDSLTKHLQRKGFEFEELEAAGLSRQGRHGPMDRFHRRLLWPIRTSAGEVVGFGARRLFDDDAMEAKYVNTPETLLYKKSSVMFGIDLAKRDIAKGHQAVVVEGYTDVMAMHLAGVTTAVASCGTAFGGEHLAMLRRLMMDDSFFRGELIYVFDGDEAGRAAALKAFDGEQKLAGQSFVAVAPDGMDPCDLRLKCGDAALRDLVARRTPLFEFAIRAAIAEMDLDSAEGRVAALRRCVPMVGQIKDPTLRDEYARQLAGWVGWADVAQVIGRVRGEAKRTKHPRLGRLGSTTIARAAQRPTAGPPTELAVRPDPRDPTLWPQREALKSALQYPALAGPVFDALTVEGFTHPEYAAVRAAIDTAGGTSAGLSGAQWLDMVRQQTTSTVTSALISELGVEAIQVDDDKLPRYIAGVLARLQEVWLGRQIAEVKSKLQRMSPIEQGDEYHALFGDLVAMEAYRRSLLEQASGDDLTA
Protocol: as §1

SMILES | IC50 (DNA primase [1]) [µM] | IC50 (DNA primase [2]) [µM]
COc1cccc2c1C(=O)c1c(O)c3c(c(O)c1C2=O)C[C@@](O)(C(=O)CO)C[C@@H]3O[C@H]1C[C@H](N)[C@H](O)[C@H](C)O1 [Adriamycin] | 4.4 | 9.3
CCN(CC)CCOc1ccc2c(c1)C(=O)c1cc(OCCN(CC)CC)ccc1-2 [Amixin IC] | 7.1 | 69
O=c1oc2c(O)c(O)cc3c(=O)oc4c(O)c(O)cc1c4c23 [Elagic Acid] | > 100 | –
C[C@H]1COc2c(N3CCN(C)CC3)c(F)cc3c(=O)c(C(=O)O)cn1c23 [Levaquin] | 75 | –
Cc1ccc(C(=O)Nc2ccc(S(=O)(=O)O)c3cc(S(=O)(=O)O)cc(S(=O)(=O)O)c23)cc1NC(=O)c1cccc(NC(=O)Nc2cccc(C(=O)Nc3cc(C(=O)Nc4ccc(S(=O)(=O)O)c5cc(S(=O)(=O)O)cc(S(=O)(=O)O)c45)ccc3C)c2)c1 [Suramin hexasodium] | 8.2 | –
